Assay results from PMC10607160 (International Journal of Molecular Sciences, 2023).
Like-named read-outs stand apart in the source and are kept apart here. Blank lines part the entries; values can stand above or below the compound they belong to.

Key:
human GnRHR I = molecular target: T1, human GnRHR I (Homo sapiens, UniProt P30968); assay: Competitive radioligand binding (125I-DTyr6-His5-GnRH) on membranes from HEK 293 cells stably expressing GnRHR I
T1 construct: expressed in transfected cells
T1 sequence (P30968 1-328): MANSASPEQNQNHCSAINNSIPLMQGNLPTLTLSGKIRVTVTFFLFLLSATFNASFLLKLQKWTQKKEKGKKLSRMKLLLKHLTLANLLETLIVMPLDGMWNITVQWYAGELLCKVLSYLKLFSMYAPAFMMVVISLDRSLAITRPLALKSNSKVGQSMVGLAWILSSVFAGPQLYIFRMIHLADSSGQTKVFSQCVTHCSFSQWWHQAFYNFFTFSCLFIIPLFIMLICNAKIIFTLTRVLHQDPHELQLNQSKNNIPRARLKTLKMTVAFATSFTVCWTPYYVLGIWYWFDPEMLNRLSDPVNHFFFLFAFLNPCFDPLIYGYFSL

[1] = molecular target: E. coli Trx1 / E. coli TrxR (thioredoxin system) (Escherichia coli, UniProt P0AA25); assay: Disulfide bond reduction assay by EcoTrx1 (NADPH absorbance at 340 nm); type: biochemical; conditions: for Absorbance Asample1 / Absorbance Asample2 / Absorbance Average1, 2: A340, with TrxR
E. coli Trx1 / E. coli TrxR (thioredoxin system), sequence (P0AA25 2-109): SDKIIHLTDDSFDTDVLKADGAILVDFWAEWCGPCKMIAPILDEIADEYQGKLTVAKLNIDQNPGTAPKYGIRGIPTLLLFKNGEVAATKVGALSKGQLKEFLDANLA
Method: The assay employed was based on changes in the absorbance at 340 nm from the oxidation of NADPH using a modified version of the protocol laid out in [90]. Briefly, the decrease in A340 was measured in 96-well plates containing 100 μL of 200 mM potassium phosphate pH 7.4, 1 mM EDTA, 0.1 mg/mL BSA, 200 μM NADPH, 2 μM E. coli Trx1 and 10 nM E. coli TrxR for 5 min at 25 °C with insulin at a final concentration of 0.067 mM (0.2 mM disulfides) (see Table S2). The reduction of con7 was measured at a final concentration of 0.2 mM (see Table S3). Blanks were samples without EcoTrxR.
Figure 4 Reduction of (A) con7 and (B) insulin by EcoTrx1. The assay mixture contains 200 mM potassium phosphate pH 7.4, 1 mM EDTA, 0.1 mg/mL BSA, 200 μM NADPH, 2 μM Escherichia coli Trx1, 10 nM E. coli TrxR, (A) 0.2 mM con7 or (B) 0.067 mM (0.2 mM disulfides) insulin. The reaction was carried out at 25 °C by monitoring the decrease of NADPH absorbance at 340 nm for (A) con7 in the absence ( [drawing 1] ) or presence of TrxR ( [drawing 2] ) and (B) insulin in the absence ( [drawing 3] ) or presence of TrxR ( [drawing 4] ).

[2] = competition with 125I-DTyr6-His5-GnRH, HEK 293 membranes, 4 °C 16-19 h, one-site model, read-out: apparent binding affinity (IC50)

IC50 (human GnRHR I; [2]): 0.7 nM
Compound: CCNC(=O)[C@@H]1CCCN1C(=O)[C@H](CCCNC(=N)N)NC(=O)[C@H](CC(C)C)NC(=O)[C@@H](CS)NC(=O)[C@H](Cc1ccc(O)cc1)NC(=O)[C@H](CO)NC(=O)[C@H](Cc1c[nH]c2ccccc12)NC(=O)[C@H](Cc1c[nH]cn1)NC(=O)[C@@H]1CCC(=O)N1 [analogue 2, [DCys^6, Pro^9-NHEt]GnRH]

IC50 (human GnRHR I; [2]): 2.5 nM
Compound: CCNC(=O)[C@@H]1CCCN1C(=O)[C@H](CCCNC(=N)N)NC(=O)[C@H](CC(C)C)NC(=O)[C@@H](CCCCN)NC(=O)[C@H](Cc1ccc(O)cc1)NC(=O)[C@H](CO)NC(=O)[C@H](Cc1c[nH]c2ccccc12)NC(=O)[C@H](Cc1c[nH]cn1)NC(=O)[C@@H]1CCC(=O)N1 [analogue 4, (DLys^6, Pro^9-NHEt)GnRH]

Compound: CCNC(=O)[C@@H]1CCCN1C(=O)[C@H](CCCNC(=N)N)NC(=O)[C@H](CC(C)C)NC(=O)[C@@H](CSSCCC(=O)OCCNCCNc1ccc(NCCNCCO)c2c1C(=O)c1c(O)ccc(O)c1C2=O)NC(=O)[C@H](Cc1ccc(O)cc1)NC(=O)[C@H](CO)NC(=O)[C@H](Cc1c[nH]c2ccccc12)NC(=O)[C@H](Cc1c[nH]cn1)NC(=O)[C@@H]1CCC(=O)N1 [con3]
IC50 (human GnRHR I): 0.07 nM

Compound: CCNC(=O)[C@@H]1CCCN1C(=O)[C@H](CCCNC(=N)N)NC(=O)[C@H](CC(C)C)NC(=O)[C@@H](CCCCNC(=O)CCCCCNC(=O)CCSSCC(=O)NCCCCNc1ccc(O)c2c1C(=O)c1ccccc1C2=O)NC(=O)[C@H](Cc1ccc(O)cc1)NC(=O)[C@H](CO)NC(=O)[C@H](Cc1c[nH]c2ccccc12)NC(=O)[C@H](Cc1c[nH]cn1)NC(=O)[C@@H]1CCC(=O)N1 [con6]
IC50 (human GnRHR I; [2]): 0.07 nM

Compound: O=C1c2c(O)ccc(O)c2C(=O)c2c(NCCNCCO)ccc(NCCNCCO)c21 [mitoxantrone, reference compound]
apparent binding affinity (IC50) (human GnRHR I; competition with 125I-DTyr6-His5-GnRH, HEK 293 membranes, 4 °C 16-19 h, one-site model): did not bind | IC50 (human GnRHR I; [2]): > 1000 nM

Compound: insulin
Absorbance Asample1 ([1]; 0 sec): 0.236 | Absorbance Asample2 ([1]; 0 sec): 0.257 | Absorbance Average1, 2 ([1]; 0 sec): 0.247 | Absorbance Asample1 ([1]; 9 sec): 0.236 | Absorbance Asample2 ([1]; 9 sec): 0.257 | Absorbance Average1, 2 ([1]; 9 sec): 0.247 | Absorbance Asample1 ([1]; 18 sec): 0.236 | Absorbance Asample2 ([1]; 18 sec): 0.257 | Absorbance Average1, 2 ([1]; 18 sec): 0.247 | Absorbance Asample1 ([1]; 27 sec): 0.235 | Absorbance Asample2 ([1]; 27 sec): 0.257 | Absorbance Average1, 2 ([1]; 27 sec): 0.246 | Absorbance Asample1 ([1]; 36 sec): 0.236 | Absorbance Asample2 ([1]; 36 sec): 0.256 | Absorbance Average1, 2 ([1]; 36 sec): 0.246 | Absorbance Asample1 ([1]; 45 sec): 0.235 | Absorbance Asample2 ([1]; 45 sec): 0.256 | Absorbance Average1, 2 ([1]; 45 sec): 0.246 | Absorbance Asample1 ([1]; 54 sec): 0.235 | Absorbance Asample2 ([1]; 54 sec): 0.255 | Absorbance Average1, 2 ([1]; 54 sec): 0.245 | Absorbance Asample1 ([1]; 63 sec): 0.235 | Absorbance Asample2 ([1]; 63 sec): 0.256 | Absorbance Average1, 2 ([1]; 63 sec): 0.246 | Absorbance Asample1 ([1]; 72 sec): 0.235 | Absorbance Asample2 ([1]; 72 sec): 0.255 | Absorbance Average1, 2 ([1]; 72 sec): 0.245 | Absorbance Asample1 ([1]; 81 sec): 0.233 | Absorbance Asample2 ([1]; 81 sec): 0.254 | Absorbance Average1, 2 ([1]; 81 sec): 0.244 | Absorbance Asample1 ([1]; 90 sec): 0.235 | Absorbance Asample2 ([1]; 90 sec): 0.255 | Absorbance Average1, 2 ([1]; 90 sec): 0.245 | Absorbance Asample1 ([1]; 99 sec): 0.234 | Absorbance Asample2 ([1]; 99 sec): 0.254 | Absorbance Average1, 2 ([1]; 99 sec): 0.244 | Absorbance Asample1 ([1]; 108 sec): 0.234 | Absorbance Asample2 ([1]; 108 sec): 0.255 | Absorbance Average1, 2 ([1]; 108 sec): 0.245 | Absorbance Asample1 ([1]; 117 sec): 0.235 | Absorbance Asample2 ([1]; 117 sec): 0.253 | Absorbance Average1, 2 ([1]; 117 sec): 0.244 | Absorbance Asample1 ([1]; 126 sec): 0.234 | Absorbance Asample2 ([1]; 126 sec): 0.253 | Absorbance Average1, 2 ([1]; 126 sec): 0.244 | Absorbance Asample1 ([1]; 135 sec): 0.235 | Absorbance Asample2 ([1]; 135 sec): 0.253 | Absorbance Average1, 2 ([1]; 135 sec): 0.244 | Absorbance Asample1 ([1]; 144 sec): 0.234 | Absorbance Asample2 ([1]; 144 sec): 0.253 | Absorbance Average1, 2 ([1]; 144 sec): 0.244 | Absorbance Asample1 ([1]; 153 sec): 0.232 | Absorbance Asample2 ([1]; 153 sec): 0.252 | Absorbance Average1, 2 ([1]; 153 sec): 0.242 | Absorbance Asample1 ([1]; 162 sec): 0.233 | Absorbance Asample2 ([1]; 162 sec): 0.253 | Absorbance Average1, 2 ([1]; 162 sec): 0.243 | Absorbance Asample1 ([1]; 171 sec): 0.233 | Absorbance Asample2 ([1]; 171 sec): 0.252 | Absorbance Average1, 2 ([1]; 171 sec): 0.243 | Absorbance Asample1 ([1]; 180 sec): 0.233 | Absorbance Asample2 ([1]; 180 sec): 0.252 | Absorbance Average1, 2 ([1]; 180 sec): 0.243 | Absorbance Asample1 ([1]; 189 sec): 0.232 | Absorbance Asample2 ([1]; 189 sec): 0.252 | Absorbance Average1, 2 ([1]; 189 sec): 0.242 | Absorbance Asample1 ([1]; 198 sec): 0.233 | Absorbance Asample2 ([1]; 198 sec): 0.252 | Absorbance Average1, 2 ([1]; 198 sec): 0.243 | Absorbance Asample1 ([1]; 207 sec): 0.232 | Absorbance Asample2 ([1]; 207 sec): 0.252 | Absorbance Average1, 2 ([1]; 207 sec): 0.242 | Absorbance Asample1 ([1]; 216 sec): 0.233 | Absorbance Asample2 ([1]; 216 sec): 0.252 | Absorbance Average1, 2 ([1]; 216 sec): 0.243 | Absorbance Asample1 ([1]; 225 sec): 0.232 | Absorbance Asample2 ([1]; 225 sec): 0.252 | Absorbance Average1, 2 ([1]; 225 sec): 0.242 | Absorbance Asample1 ([1]; 234 sec): 0.232 | Absorbance Asample2 ([1]; 234 sec): 0.252 | Absorbance Average1, 2 ([1]; 234 sec): 0.242 | Absorbance Asample1 ([1]; 243 sec): 0.231 | Absorbance Asample2 ([1]; 243 sec): 0.251 | Absorbance Average1, 2 ([1]; 243 sec): 0.241 | Absorbance Asample1 ([1]; 252 sec): 0.231 | Absorbance Asample2 ([1]; 252 sec): 0.251 | Absorbance Average1, 2 ([1]; 252 sec): 0.241 | Absorbance Asample1 ([1]; 261 sec): 0.230 | Absorbance Asample2 ([1]; 261 sec): 0.250 | Absorbance Average1, 2 ([1]; 261 sec): 0.240 | Absorbance Asample1 ([1]; 270 sec): 0.230 | Absorbance Asample2 ([1]; 270 sec): 0.250 | Absorbance Average1, 2 ([1]; 270 sec): 0.240 | Absorbance Asample1 ([1]; 279 sec): 0.231 | Absorbance Asample2 ([1]; 279 sec): 0.251 | Absorbance Average1, 2 ([1]; 279 sec): 0.241 | Absorbance Asample1 ([1]; 288 sec): 0.230 | Absorbance Asample2 ([1]; 288 sec): 0.250 | Absorbance Average1, 2 ([1]; 288 sec): 0.240 | Absorbance Asample1 ([1]; 297 sec): 0.229 | Absorbance Asample2 ([1]; 297 sec): 0.250 | Absorbance Average1, 2 ([1]; 297 sec): 0.240 | reduction of disulfide bond by the thioredoxin system ([1]; decrease of NADPH absorbance over time in samples containing TrxR): successful
